{"source": "patent US10959427B2", "about": "“Attractant of ladybugs, aphid's natural enemy” (Zhejiang University, priority 2018, dated 2021)", "tested_on": "Coccinella septempunctata", "experiment": "Wind tunnel experiment: behavioral responses of ladybugs to the attractant", "format": "in vivo", "conditions": "for Proportion of Knocking Filter Paper, Female Proportion / Proportion of Passing Through ½ of Wind Tunnel, Female Proportion / Proportion of Take Off, Female Proportion: female ladybugs; for Proportion of Knocking Filter Paper, Female Proportion / Proportion of Knocking Filter Paper, Male Proportion: number of insects knocking filter paper/total number of insects; for Proportion of Knocking Filter Paper, Female Proportion / Proportion of Passing Through ½ of Wind Tunnel, Female Proportion / Proportion of Take Off, Female Proportion / Proportion of Knocking Filter Paper, Male Proportion / Proportion of Passing Through ½ of Wind Tunnel, Male Proportion / Proportion of Take Off, Male Proportion: 30 min, 28° C., wind speed 0.3 m/s; for Proportion of Passing Through ½ of Wind Tunnel, Female Proportion / Proportion of Passing Through ½ of Wind Tunnel, Male Proportion: number of insects passing through ½ of wind tunnel/total number of insects; for Proportion of Take Off, Female Proportion / Proportion of Take Off, Male Proportion: number of take-off insects/total number of insects; for Proportion of Knocking Filter Paper, Male Proportion / Proportion of Passing Through ½ of Wind Tunnel, Male Proportion / Proportion of Take Off, Male Proportion: male ladybugs; for Attraction of ladybugs in the wind tunnel, result in words: summary of wind tunnel results", "method": "(§1) Wind tunnel experiments were performed using a wind tunnel device to determine the behavioral responses of ladybugs to the attractant. The wind tunnel device is 90 cm long, 35 cm wide and 35 cm high. The desired ladybugs were put into a glass tube 30 minutes before the test, and both the ends of the glass tube were sealed with absorbent cotton to adapt the ladybugs to the environment in the wind tunnel. The filter paper-loaded compound was placed on the upper air outlet, and the wind speed in the wind tunnel was 0.3 m/s. The whole process of bioassay was carried out at 28° C. The glass tube was placed at the end of the lower air outlet of the wind tunnel. Timing started and lasted for 30 min. The numbers of take-offs, directional flights, and proximity to attractant sources were recorded and their relative proportions were calculated. The experimental method was referred to the wind tunnel experiment of Binyameen M et al (Journal of Chemical Ecology, 2013, 39(10):1273-1283).\nThe behavioral responses of ladybugs to the attractants in Comparative Examples 1-5 were measured by using a wind tunnel device (same conditions as in Example 1).\nas §1, with “to the attractants. The wind” for “to the attractant. The wind”, “glass tube with the ladybugs was placed” for “glass tube was placed”, “min. The proportions of take-offs,” for “min. The numbers of take-offs,”, “sources were recorded.” for “sources were recorded and their relative proportions were calculated. The experimental method was referred to the wind tunnel experiment of Binyameen M et al (Journal of Chemical Ecology, 2013, 39(10):1273-1283).”\nWind tunnel experiments were performed using a wind tunnel device to determine the behavioral responses of ladybugs to the attractants of Example 3 and Comparative Examples 6-10.\nWind tunnel experiments were performed using a wind tunnel device to determine the behavioral responses of ladybugs to the attractants of Example 4 and Comparative Examples11-20.\nNote: Coccinella septempunctata were used in the above wind tunnel experiments; when the Rodolia limbata, Harmonia axyridis, Propylaea japonica and Chilocorus rubidus hope were taken as the experiment objects, the results (trend) were basically the same as that of Coccinella septempunctata."}
{"compound": "C=CC1(C)CCC(C(=C)C)CC1C(=C)C", "note": "(stereo not shown) [Comparative Example 16, 1-vinyl-1-methyl-2,4-di (propyl-1-ene-2-yl) cyclohexane]", "values": [{"measurement": "Proportion of Knocking Filter Paper, Female Proportion", "value": 0, "unit": "%"}, {"measurement": "Proportion of Passing Through ½ of Wind Tunnel, Female Proportion", "value": 13.3, "unit": "%"}, {"measurement": "Proportion of Take Off, Female Proportion", "value": 0, "unit": "%"}, {"measurement": "Proportion of Knocking Filter Paper, Male Proportion", "value": 11.7, "unit": "%"}, {"measurement": "Proportion of Passing Through ½ of Wind Tunnel, Male Proportion", "value": 73.3, "unit": "%"}, {"measurement": "Proportion of Take Off, Male Proportion", "value": 21.7, "unit": "%^"}, {"measurement": "Attraction of ladybugs in the wind tunnel, result in words", "value": "better effect on attracting male ladybugs but worse than Example 4"}]}
{"compound": "CC(C)=CCC/C(C)=C/CC/C(C)=C/CC/C=C(\\C)CC/C=C(\\C)CCC=C(C)C", "note": "[Comparative Example 20, squalene]", "values": [{"measurement": "Proportion of Knocking Filter Paper, Female Proportion", "value": 13.3, "unit": "%"}, {"measurement": "Proportion of Passing Through ½ of Wind Tunnel, Female Proportion", "value": 61.7, "unit": "%"}, {"measurement": "Proportion of Take Off, Female Proportion", "value": 20, "unit": "%"}, {"measurement": "Proportion of Knocking Filter Paper, Male Proportion", "value": 6.7, "unit": "%"}, {"measurement": "Proportion of Passing Through ½ of Wind Tunnel, Male Proportion", "value": 66.7, "unit": "%"}, {"measurement": "Proportion of Take Off, Male Proportion", "value": 26.8, "unit": "%^"}, {"measurement": "Attraction of ladybugs in the wind tunnel, result in words", "value": "number of insects knocking filter paper was significant less that the other examples"}]}
{"compound": "CC(C)CC=O", "note": "[Comparative Example 19, isovaleraldehyde]", "values": [{"measurement": "Proportion of Knocking Filter Paper, Female Proportion", "value": 11.7, "unit": "%"}, {"measurement": "Proportion of Passing Through ½ of Wind Tunnel, Female Proportion", "value": 58.3, "unit": "%"}, {"measurement": "Proportion of Take Off, Female Proportion", "value": 13.3, "unit": "%"}, {"measurement": "Proportion of Knocking Filter Paper, Male Proportion", "value": 15, "unit": "%"}, {"measurement": "Proportion of Passing Through ½ of Wind Tunnel, Male Proportion", "value": 56.7, "unit": "%"}, {"measurement": "Proportion of Take Off, Male Proportion", "value": 10, "unit": "%"}, {"measurement": "Attraction of ladybugs in the wind tunnel, result in words", "value": "poor attraction to female and male ladybugs"}]}
{"compound": "CCC/C=C/C(=O)O", "note": "[Comparative Example 18, trans-2-hexenoic acid]", "values": [{"measurement": "Proportion of Knocking Filter Paper, Female Proportion", "value": 10, "unit": "%"}, {"measurement": "Proportion of Passing Through ½ of Wind Tunnel, Female Proportion", "value": 53.3, "unit": "%"}, {"measurement": "Proportion of Take Off, Female Proportion", "value": 11.7, "unit": "%"}, {"measurement": "Proportion of Knocking Filter Paper, Male Proportion", "value": 8.3, "unit": "%"}, {"measurement": "Proportion of Passing Through ½ of Wind Tunnel, Male Proportion", "value": 46.7, "unit": "%"}, {"measurement": "Proportion of Take Off, Male Proportion", "value": 20, "unit": "%"}, {"measurement": "Attraction of ladybugs in the wind tunnel, result in words", "value": "poor attraction to female and male ladybugs"}]}
